Measurements published in US20140142127A1, “Stable Compositions of HMG-COA Reductase Inhibitors and Omega-3 Oils” (Almburg, LLC, priority 2012, published 2014).
Blank lines part the entries; values can stand above or below the compound they belong to.

Test: Storage stability of statin Ca salt suspensions in omega-3 oils, statin and lactone quantified by HPLC
Type: physicochemical
Description: (§1) Atorvastatin Ca (At) in ethyl ester of EPA (97% purity from Equatec) was prepared as follows: The drug substance was weighed into a glass vessel containing a magnetic stir bar and the oil was then added by volume to make a 10 mg/ml suspension. The clear oil made an off-white suspension with the drug, which was uniformly dispersed by magnetic stirring. Each formulation also had 1% BHA via ethanol solution (1% of volume of the final suspension from a 100 mg/mL solution of BHA in anhydrous ethanol, resulting in 1 mg/mL BHA or 0.1% w/V). While stirring the suspensions were individually transferred by mass into 250 ul glass vial inserts to about 260 mg, which was essentially a complete fill. Vials were crimped with a teflon-backed seal and placed on stability stations: 25 C/60% RH, 40 C/75% RH and −20 C for reference. Samples were pulled at monthly intervals and prepared for HPLC analysis using a C18 column, samples were transferred, fully dissolved and diluted to 10.0 ml with dry DMF. At and corresponding lactone were quantified from HPLC chromatograms against standards of the At API. Integration was done using the Perkin Elmer software supplied with the HPLC system.
as §1, with “omega-3 free fatty acid” for “ethyl ester of EPA (97% purity from Equatec)”
as §1, with “Rosuvastatin” for “Atorvastatin”, “(Ro)” for “(At)”
RosuvastatinCa (Ro) in omega-3 free fatty acid was prepared as follows: The drug substance was weighed into a glass vessel containing a magnetic stir bar and the oil was then added by volume to make a 10 mg/ml suspension. The clear oil made an off-white suspension with the drug, which was uniformly dispersed by magnetic stirring. […]

[1] = Ethyl ester omega-3 oil, additive CaCO3, 25° C./60% RH, 3 months
[2] = Ethyl ester omega-3 oil, additive CaCO3, 40° C./75% RH, 1 month
[3] = Ethyl ester omega-3 oil, additive CaCO3, 40° C./75% RH, 3 months
[4] = Ethyl ester omega-3 oil, additive CaCl2, 25° C./60% RH, 3 months
[5] = Ethyl ester omega-3 oil, additive CaCl2, 40° C./75% RH, 1 month
[6] = Ethyl ester omega-3 oil, additive CaCl2, 40° C./75% RH, 3 months
[7] = Ethyl ester omega-3 oil, additive CaHPO4, 25° C./60% RH, 3 months
[8] = Ethyl ester omega-3 oil, additive CaHPO4, 40° C./75% RH, 1 month
[9] = Ethyl ester omega-3 oil, additive CaHPO4, 40° C./75% RH, 3 months
[10] = Ethyl ester omega-3 oil, additive None, 40° C./75% RH, 1 month
[11] = Free acid omega-3 oil, additive CaCO3, 25° C./60% RH, 3 months
[12] = Free acid omega-3 oil, additive CaCO3, 40° C./75% RH, 1 month
[13] = Free acid omega-3 oil, additive CaCO3, 40° C./75% RH, 3 months
[14] = Free acid omega-3 oil, additive CaCl2, 25° C./60% RH, 3 months
[15] = Free acid omega-3 oil, additive CaCl2, 40° C./75% RH, 1 month
[16] = Free acid omega-3 oil, additive CaCl2, 40° C./75% RH, 3 months
[17] = Free acid omega-3 oil, additive CaHPO4, 25° C./60% RH, 3 months
[18] = Free acid omega-3 oil, additive CaHPO4, 40° C./75% RH, 1 month
[19] = Free acid omega-3 oil, additive CaHPO4, 40° C./75% RH, 3 months
[20] = Free acid omega-3 oil, additive None, 40° C./75% RH, 1 month
[21] = Triglyceride omega-3 oil, additive None, 40° C./75% RH, 1 month

At Lactone [1]: 0.26%
Atorvastatin [1]: 110.7%
At Lactone [2]: 0.34%
Atorvastatin [2]: 97.6%
At Lactone [3]: 1.87%
Atorvastatin [3]: 111.8%
At Lactone [4]: 0.35%
Atorvastatin [4]: 98.2%
At Lactone [5]: 0.06%
Atorvastatin [5]: 103.2%
At Lactone [6]: 0.48%
Atorvastatin [6]: 97.1%
At Lactone [7]: 0.38%
Atorvastatin [7]: 98.0%
At Lactone [8]: 0.21%
Atorvastatin [8]: 100.9%
At Lactone [9]: 4.80%
Atorvastatin [9]: 90.8%
At Lactone [10]: 0.18%
Atorvastatin [10]: 98.0%
At Lactone [11]: 24.6%
Atorvastatin [11]: 77.3%
At Lactone [12]: 1.5%
Atorvastatin [12]: 101.8%
At Lactone [13]: 35.2%
Atorvastatin [13]: 76.4%
At Lactone [14]: 18.6%
Atorvastatin [14]: 84.2%
At Lactone [15]: 13.5%
Atorvastatin [15]: 87.3%
At Lactone [16]: 19.8%
Atorvastatin [16]: 90.7%
At Lactone [17]: 32.2%
Atorvastatin [17]: 80.9%
At Lactone [18]: 13.6%
Atorvastatin [18]: 99.5%
At Lactone [19]: 25.2%
Atorvastatin [19]: 92.0%
At Lactone [20]: 75.6%
Atorvastatin [20]: 22.8%
At Lactone [21]: 4.6%
Atorvastatin [21]: 85.3%
SMILES: CC(C)c1c(C(=O)Nc2ccccc2)c(-c2ccccc2)c(-c2ccc(F)cc2)n1CC[C@@H](O)C[C@@H](O)CC(=O)O [Atorvastatin, Atorvastatin Ca]

Ro Lactone [1]: 0.31%
Rosuvastatin [1]: 101.9%
Ro Lactone [2]: 0.79%
Rosuvastatin [2]: 79.8%
Ro Lactone [3]: 5.56%
Rosuvastatin [3]: 86.1%
Ro Lactone [4]: 0.23%
Rosuvastatin [4]: 110.4%
Ro Lactone [5]: 0.09%
Rosuvastatin [5]: 93.1%
Ro Lactone [6]: 1.03%
Rosuvastatin [6]: 108.8%
Ro Lactone [7]: 0.26%
Rosuvastatin [7]: 98.2%
Rosuvastatin [8]: 96.2%
Ro Lactone [9]: 9.75%
Rosuvastatin [9]: 83.7%
Ro Lactone [10]: 0.92%
Rosuvastatin [10]: 95.0%
Ro Lactone [11]: 1.0%
Rosuvastatin [11]: 100.2%
Ro Lactone [12]: 0.25%
Rosuvastatin [12]: 105.4%
Ro Lactone [13]: 0.83%
Rosuvastatin [13]: 92.4%
Ro Lactone [14]: 0.44%
Rosuvastatin [14]: 101.9%
Ro Lactone [15]: 0.28%
Rosuvastatin [15]: 105.2%
Ro Lactone [16]: 0.39%
Rosuvastatin [16]: 98.7%
Ro Lactone [17]: 0.74%
Rosuvastatin [17]: 99.9%
Ro Lactone [18]: 0.17%
Rosuvastatin [18]: 99.5%
Ro Lactone [19]: 0.69%
Rosuvastatin [19]: 102.2%
Ro Lactone [20]: 60.0%
Rosuvastatin [20]: 39.1%
Ro Lactone [21]: 2.5%
Rosuvastatin [21]: 100.6%
SMILES: CC(C)c1nc(N(C)S(C)(=O)=O)nc(-c2ccc(F)cc2)c1/C=C/[C@@H](O)C[C@@H](O)CC(=O)O [Rosuvastatin, Rosuvastatin Ca]
